Laboratory results reported in patent US7781416B2, “Derivatives of partially desulphated glycosaminoglycans as heparanase inhibitors, endowed with antiangiogenic activity and devoid of anticoagulating effect” (Sigma-Tau Research Switzerland S.A., priority 2002, dated 2010).

Assays:
Type in all cases: biochemical
recombinant heparanase [1] = molecular target: T1, recombinant heparanase (Homo sapiens, UniProt Q9Y251); experiment: Heparanase inhibition, fragmentation of HS of sulphate labelled ECM (Table 1); conditions: pH 6.2
T1 sequence (Q9Y251 36-543): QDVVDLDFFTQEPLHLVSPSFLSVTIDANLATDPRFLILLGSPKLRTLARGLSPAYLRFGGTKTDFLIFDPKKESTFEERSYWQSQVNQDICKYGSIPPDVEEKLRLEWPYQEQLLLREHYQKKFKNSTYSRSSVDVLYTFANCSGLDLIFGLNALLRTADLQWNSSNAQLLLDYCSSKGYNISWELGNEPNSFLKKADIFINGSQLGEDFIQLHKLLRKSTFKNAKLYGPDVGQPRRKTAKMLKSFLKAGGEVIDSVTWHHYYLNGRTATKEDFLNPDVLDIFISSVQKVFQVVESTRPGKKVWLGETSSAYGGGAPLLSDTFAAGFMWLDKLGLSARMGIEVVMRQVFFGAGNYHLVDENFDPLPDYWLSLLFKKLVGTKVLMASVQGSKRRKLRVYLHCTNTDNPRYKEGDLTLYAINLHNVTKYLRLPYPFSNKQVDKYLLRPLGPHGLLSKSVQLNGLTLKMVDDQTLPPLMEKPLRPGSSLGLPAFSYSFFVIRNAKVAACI
Protocol: The heparanase inhibiting activity was determined according to a method established by Vlodavsky's group (Bitan M. et al, 1995). The method is based on evaluation of the extent of fragmentation of the heparan sulphate chains of heparan sulphate proteoglycans (HSPG) caused by heparanase. Sulphate labelled extracellular matrix (ECM) is most commonly used as a source of HSPG. Sulphate labelled ECM is incubated with recombinant heparanase at pH 6.2 in the absence and in the presence of increasing concentrations of the test compound. To evaluate the occurrence of proteoglycan degradation, the incubation medium is collected and applied for gel filtration on Sepharose 6B columns (0.9×30 cm). Fractions (0,2 ml) are eluted with PBS at a flow rate of 5 ml/h and counted for radioactivity. The excluded volume (Vo) is marked by blue dextran and the total included volume (Vt) by phenol red. Degradation fragments of HS side chains are eluted from Sepharose 6B at 0.5<Kav<0.8 (peak II).

recombinant heparanase [2] = molecular target: T2, recombinant heparanase (Homo sapiens, UniProt Q9Y251); experiment: Heparanase inhibition activity with sulfate labeled ECM as substrate (Example 4, Table 2); conditions: 1 μg/ml; heparanase 40 ng/ml, 4 h, 37° C., pH 6.0
T2 construct: Recombinant enzymatically active heparanase was purified from heparanase-transfected CHO cells; made in house; host or cells: CHO cells transfected with heparanase
T2 sequence (Q9Y251 158-543 limits assumed): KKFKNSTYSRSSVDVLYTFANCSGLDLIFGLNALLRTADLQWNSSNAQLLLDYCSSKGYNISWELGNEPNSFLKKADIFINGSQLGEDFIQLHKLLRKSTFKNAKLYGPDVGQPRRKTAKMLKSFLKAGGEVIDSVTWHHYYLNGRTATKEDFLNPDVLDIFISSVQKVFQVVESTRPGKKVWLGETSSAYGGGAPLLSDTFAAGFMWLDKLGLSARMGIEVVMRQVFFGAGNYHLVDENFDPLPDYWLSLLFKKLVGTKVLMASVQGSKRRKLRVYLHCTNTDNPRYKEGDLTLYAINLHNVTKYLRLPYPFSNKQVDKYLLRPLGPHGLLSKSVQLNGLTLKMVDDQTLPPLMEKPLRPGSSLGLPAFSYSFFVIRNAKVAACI
T2 sequence (Q9Y251 36-109 limits assumed): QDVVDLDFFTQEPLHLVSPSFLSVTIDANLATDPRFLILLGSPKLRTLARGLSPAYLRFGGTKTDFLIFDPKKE
Protocol: Recombinant enzymatically active heparanase was purified from heparanase-transfected CHO cells (1).
Bovine corneal endothelial cells were plated into 35-mm tissue culture dishes at an initial density of 2×10^5 cells/ml and cultured as described above, except that 4% dextran T-40 was included in the growth medium (1, 52). On day 12, the subendothelial ECM was exposed by dissolving the cell layer with PBS containing 0.5% Triton X-100 and 20 mM NH4OH, followed by four washes with PBS (12). The ECM remained intact, free of cellular debris and firmly attached to the entire area of the tissue culture dish. To produce sulfate labelled ECM, […] (Amersham, Buckinghamshire, UK) was added (25 μCi/ml) on days 2 and 5 after seeding and the cultures were incubated with the label without medium change and processed as described (1, 52). Nearly 80% of the ECM radioactivity was incorporated into HSPG.
Heparin species were tested for their ability to inhibit heparanase, using metabolically sulfate labeled ECM as a substrate. […] Fractions (0.2 ml) were eluted with PBS at a flow rate of 5 ml/h and counted for radioactivity. […]
Heparanase activity is calculated as the total amount of cpm eluted in peak II multiplied by the Kav (i.e., elution position) of these fragments. […]

recombinant heparanase [3] = molecular target: T2, recombinant heparanase; experiment: Gel permeation analysis before and after digestion with heparanase (susceptibility to cleavage); conditions: 2 mg compound, 4 μg recombinant heparanase, 48 h, 37° C., pH 5.8; GPC-HPLC
Protocol: FIG. 8. Glycol-splitting inhibits cleavage by heparanase. Gel filtration profiles of fully N-acetylated heparin (A) and 52% glycol split heparin (B) before (a) and after (b) incubation with heparanase. 2 mg of each compound were incubated for 48 h at 37° C. in 40 mM phosphate-citrate buffer, pH 5.8, with or without 4 μg recombinant heparanase in a total volume of 50 μl. The samples were lyophilized, then redisolved in 0.5 ml water and analyzed by GPC-HPLC using 300×7.8 mm TSK PW 2000 and PW 3000 colums and a refraction index detector. The sharp peak is from salts.
Gel permeation analysis of N-acetyl heparin (NAH) and ˜50% glycol-split heparin (H, 52gs) before and after digestion with heparinase 2 mg of each compound were incubated for 48 h at 37° C. in 40 mM phosphate-citrate buffer, pH 5.8, with or without 4 μg recombinant heparanase in a total volume of 50 μl. The samples were lyophilized, then redisolved in 0.5 ml of water and analyzed by GPC-HPLC using 300×7.8 mm TSK PW 2000 and PW 3000 columns.

Inhibition (recombinant heparanase [1]): >100%
Heparanase inhibitory activity, % Mean [SD (N)] (recombinant heparanase [2]): ~70%
cleavage by heparanase (recombinant heparanase [3]): cleaved by heparanase
Substance: Heparin
